Biological target: T1, sGC α1/β1 heterodimer stably expressed in CHO-K1 cell line (CHO-K1/sGC) (Homo sapiens, UniProt Q02108+Q02153)
T1 construct: expressed in transfected cells
T1 sequence (Q02108 1-690): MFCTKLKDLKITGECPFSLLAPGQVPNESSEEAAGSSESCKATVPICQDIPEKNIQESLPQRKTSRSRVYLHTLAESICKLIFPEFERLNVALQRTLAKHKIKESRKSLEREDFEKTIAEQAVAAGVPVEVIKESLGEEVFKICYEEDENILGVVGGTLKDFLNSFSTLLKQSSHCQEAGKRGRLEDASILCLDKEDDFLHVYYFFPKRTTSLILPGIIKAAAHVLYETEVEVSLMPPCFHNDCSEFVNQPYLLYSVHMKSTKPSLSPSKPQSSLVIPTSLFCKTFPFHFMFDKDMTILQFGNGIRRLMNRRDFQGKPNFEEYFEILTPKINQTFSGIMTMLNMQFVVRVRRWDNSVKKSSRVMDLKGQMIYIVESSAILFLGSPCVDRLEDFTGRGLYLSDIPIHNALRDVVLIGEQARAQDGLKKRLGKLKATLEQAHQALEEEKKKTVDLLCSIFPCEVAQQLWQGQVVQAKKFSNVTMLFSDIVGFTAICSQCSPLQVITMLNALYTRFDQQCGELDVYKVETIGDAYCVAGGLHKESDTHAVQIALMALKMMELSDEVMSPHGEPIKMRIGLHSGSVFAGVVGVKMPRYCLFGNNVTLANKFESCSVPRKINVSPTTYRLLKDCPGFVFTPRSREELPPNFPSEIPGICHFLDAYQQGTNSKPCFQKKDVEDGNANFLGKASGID
T1 sequence (Q02153 1-619): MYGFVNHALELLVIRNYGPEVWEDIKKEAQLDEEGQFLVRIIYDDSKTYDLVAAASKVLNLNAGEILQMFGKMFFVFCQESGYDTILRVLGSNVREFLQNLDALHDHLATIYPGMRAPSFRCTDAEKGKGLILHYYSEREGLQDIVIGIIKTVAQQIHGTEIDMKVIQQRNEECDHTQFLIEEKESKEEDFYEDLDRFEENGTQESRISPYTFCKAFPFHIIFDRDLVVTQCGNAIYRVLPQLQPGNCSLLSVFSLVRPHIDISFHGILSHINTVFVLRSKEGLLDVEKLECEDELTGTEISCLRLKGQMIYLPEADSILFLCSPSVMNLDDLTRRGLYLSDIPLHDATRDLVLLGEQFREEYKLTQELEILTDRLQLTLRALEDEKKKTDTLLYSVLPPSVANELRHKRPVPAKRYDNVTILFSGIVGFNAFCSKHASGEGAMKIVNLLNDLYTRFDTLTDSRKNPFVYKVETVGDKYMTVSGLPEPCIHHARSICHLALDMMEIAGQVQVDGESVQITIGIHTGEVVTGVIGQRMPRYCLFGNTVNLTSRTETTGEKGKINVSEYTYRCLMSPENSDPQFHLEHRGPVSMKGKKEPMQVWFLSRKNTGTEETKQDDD
Experiment: Cell-based sGC Functional Assay (CASA Assay), cGMP generation
Settings: CHO-K1/sGC cells, 1 hr at 37° C., cGMP by HTRF, 4P fit; presence or absence of 1 μM DETA-NO not given; read-out: IP (nM) (inflection point)
From the text: sGC is a heme-containing enzyme that converts GTP to secondary messenger cGMP. Increases in cGMP levels affect several physiological processes including vasorelaxation through multiple downstream pathways. […] Heme-dependent activators (HDAs) preferentially activate sGC containing a ferrous heme group. To determine the effect of sGC activators on enzyme activity, the CASA assay was developed to monitor the generation of cGMP in a cell line that stably expresses the heterodimeric sGC protein.
A CHO-K1 cell line stably expressing the sGC α1/β1 heterodimer was generated using a standard transfection protocol. CHO-K1 cells were transfected with plasmids pIREShyghsGCα1 and pIRESneo-hsGCβ1 simultaneously using FUGENE reagent. Clones that stably express both subunits were selected with hygromycin and neomycin for ˜2 weeks. Clone #7 was chosen for the assay and was designated CHO-K1/sGC. CHO-K1/sGC cells were maintained in F-K12 medium containing 10% heat-inactivated Fetal Bovine Serum (FBS), 100 μg/mL penicillin/streptomycin, 0.5 mg/mL hygromycin and 0.25 mg/mL G418. The cells were then cryopreserved in LN2. On the day of the assay, cells thawed and resuspended in EBSS Assay Buffer (Sigma, E3024) supplemented with 5 mM MgCl2, 10 mM HEPES (4-(2-hydroxyethyl)piperazine-1-ethanesulfonic acid) and 0.05% BSA (bovine serum albumin) (EAB) and cell density was then adjusted to 4×10^5/mL with EAB, IBMX (3-isobutyl-1-methylxanthin, 0.5 mM) was added to inhibit degradation of cGMP. Compounds were diluted from DMSO stock solutions and added to the assay at a final DMSO concentration of 2.5%. Cells were incubated with compounds in the presence and absence of 1 μM of Diethylenetriamine/nitric oxide adduct (DETA-NO; Sigma, 17018) for 1 hr at 37° C. At the end of the incubation period, the reaction was terminated and the cells were lysed with the detection reagents from Cisbio Kits. The level of intracellular cGMP was determined using an HTRF-based assay kit (CisBio, 62GM2PEC), which detects the displacement of a fluorescence labeled cGMP from its specific antibody. The cGMP produced by test compounds was directly compared to the maximum cGMP production (this value was set to equal 100% activation.) of the published sGC-HDA Compound A:
[drawing 300] (Example 1 in WO 2010/065275, published Jun. 10, 2010). The test compounds' activities were then expressed as a percentage of Compound A, the standard in every experiment. This percent activation was calculated either in the presence or absence of DETA-NO which was then plotted. IP and maximum fold induction was derived using ADA analysis software for 4P fit.
The compounds in the Examples of the instant invention had inflection points (IP) less than or equal to 10 μM and more particularly less than or equal to about 1 μM.

CC(F)(F)c1ccc(C2(C)C(=O)Nc3nc(-c4cn5ncnc5c(CCC(F)(F)C(F)(F)F)n4)nc(N)c32)cn1 (racemic) [Example 16B, 4-amino-5-(6-(1,1-difluoroethyl)pyridin-3-yl)-5-methyl-2-(8-(3,3,4,4,4-pentafluorobutyl)-[1,2,4]triazolo[1,5-a]pyrazin-6-yl)-5H-pyrrolo[2,3-d]pyrimidin-6(7H)-one]
EC50: 13.1 nM

Cc1ccc(C2(C3CC3)C(=O)Nc3nc(-c4cn5ncnc5c(CCC(F)(F)C(F)(F)F)n4)nc(N)c32)nc1 (racemic) [Example 17B, 4-amino-5-cyclopropyl-5-(5-methylpyridin-2-yl)-2-(8-(3,3,4,4,4-pentafluorobutyl)-[1,2,4]triazolo[1,5-a]pyrazin-6-yl)-5H-pyrrolo[2,3-d]pyrimidin-6(7H)-one]
EC50: 36.1 nM

Cc1cnc(C2(C3CC3)C(=O)Nc3nc(-c4cn5ncnc5c(CCC(F)(F)C(F)(F)F)n4)nc(N)c32)cn1 (racemic) [Example 21B, 4-amino-5-cyclopropyl-5-(5-methylpyrazin-2-yl)-2-(8-(3,3,4,4,4-pentafluorobutyl)-[1,2,4]triazolo[1,5-a]pyrazin-6-yl)-5H-pyrrolo[2,3-d]pyrimidin-6(7H)-one]
EC50: 43.1 nM

CC(F)(F)c1ccc(C2(C)C(=O)Nc3nc(-c4cn5ncnc5c(CCCC(F)(F)F)n4)nc(N)c32)cn1 (racemic) [Example 45B, 4-amino-5-(6-(1,1-difluoroethyl)pyridin-3-yl)-5-methyl-2-(8-(4,4,4-trifluorobutyl)-[1,2,4]triazolo[1,5-a]pyrazin-6-yl)-5H-pyrrolo[2,3-d]pyrimidin-6(7H)-one]
EC50: 44.2 nM

Cc1ccc(C2(C3CC3)C(=O)Nc3nc(-c4cn5ncnc5c(CCCC(F)(F)F)n4)nc(N)c32)nc1 (racemic) [Example 47B, 4-amino-5-cyclopropyl-5-(5-methylpyridin-2-yl)-2-(8-(4,4,4-trifluorobutyl)-[1,2,4]triazolo[1,5-a]pyrazin-6-yl)-5H-pyrrolo[2,3-d]pyrimidin-6(7H)-one]
EC50: 144 nM

Cc1nc(C2(C)C(=O)Nc3nc(-c4cn5ncnc5c(CCCC(F)(F)F)n4)nc(N)c32)ccc1C(F)(F)F (racemic) [Example 49B, 4-amino-5-methyl-5-(6-methyl-5-(trifluoromethyl)pyridin-2-yl)-2-(8-(4,4,4-trifluorobutyl)-[1,2,4]triazolo[1,5-a]pyrazin-6-yl)-5H-pyrrolo[2,3-d]pyrimidin-6(7H)-one]
EC50: 595 nM

CC1(c2ncc(C(F)(F)F)cn2)C(=O)Nc2nc(-c3cn4ncnc4c(CCCC(F)(F)F)n3)nc(N)c21 (racemic) [Example 51B, 4-amino-5-methyl-2-(8-(4,4,4-trifluorobutyl)-[1,2,4]triazolo[1,5-d]pyrazin-6-yl)-5-(5-(trifluoromethyl)pyrimidin-2-yl)-5H-pyrrolo[2,3-d]pyrimidin-6(7H)-one]
EC50: 15.1 nM

CCCCc1nc(-c2nc(N)c3c(n2)NC(=O)C3(c2ccc(C)cn2)C2CC2)cn2ncnc12 (racemic) [Example 72B, 4-amino-2-(8-butyl-[1,2,4]triazolo[1,5-a]pyrazin-6-yl)-5-cyclopropyl-5-(5-methylpyridin-2-yl)-5H-pyrrolo[2,3-d]pyrimidin-6(7H)-one]
EC50: 28.5 nM

Nc1nc(-c2cn3ncnc3c(CCCC(F)(F)F)n2)nc2c1C(c1ccc(C(F)(F)F)cn1)(C1CC1)C(=O)N2 (single isomer, unassigned) [Example 2A, 4-Amino-5-cyclopropyl-2-(8-(4,4,4-trifluorobutyl)-[1,2,4]triazolo[1,5-a]pyrazin-6-yl)-5-(5-(trifluoromethyl)pyridin-2-yl)-5H-pyrrolo[2,3-d]pyrimidin-6(7H)-one]
EC50: 128 nM

Cc1nnc(C2(C)C(=O)Nc3nc(-c4cn5ncnc5c(CCC(F)(F)C(F)(F)F)n4)nc(N)c32)o1 (single isomer, unassigned) [Example 97B, 4-Amino-5-methyl-5-(5-methyl-1,3,4-oxadiazol-2-yl)-2-(8-(3,3,4,4,4-pentafluorobutyl)-[1,2,4]triazolo[1,5-a]pyrazin-6-yl)-5H-pyrrolo[2,3-d]pyrimidin-6(7H)-one]
EC50: 219 nM

Nc1nc(-c2cn3ncnc3c(CCCC(F)(F)F)n2)nc2c1C(c1ncc(C(F)(F)F)cn1)(C1CC1)C(=O)N2 (single isomer, unassigned) [Example 180B, 4-amino-5-cyclopropyl-2-(8-(4,4,4-trifluorobutyl)-[1,2,4]triazolo[1,5-a]pyrazin-6-yl)-5-(5-(trifluoromethyl)pyrimidin-2-yl)-5,7-dihydro-6H-pyrrolo[2,3-d]pyrimidin-6-one]
EC50: 488 nM

CC1(c2ccc(Cl)cn2)C(=O)Nc2nc(-c3cn4ncnc4c(CCC(F)(F)C(F)(F)F)n3)nc(N)c21 (stereo not drawn) [Example 3A, 4-amino-5-(5-chloropyridin-2-yl)-5-methyl-2-(8-(3,3,4,4,4-pentafluorobutyl)-[1,2,4]triazolo[1,5-a]pyrazin-6-yl)-5H-pyrrolo[2,3-d]pyrimidin-6(7H)-one]
EC50: 40.4 nM

CC1(c2ccc(Cl)c(F)c2)C(=O)Nc2nc(-c3cn4ncnc4c(CCC(F)(F)C(F)(F)F)n3)nc(N)c21 (stereo not drawn) [Example 5B, 4-amino-5-(4-chloro-3-fluorophenyl)-5-methyl-2-(8-(3,3,4,4,4-pentafluorobutyl)-[1,2,4]triazolo[1,5-a]pyrazin-6-yl)-5H-pyrrolo[2,3-d]pyrimidin-6(7H)-one]
EC50: 20.9 nM

Nc1nc(-c2cn3ncnc3c(CCC(F)(F)C(F)(F)F)n2)nc2c1C(c1ccc(F)c(F)c1)(C1CC1)C(=O)N2 (stereo not drawn) [Example 6A, 4-amino-5-cyclopropyl-5-(3,4-difluorophenyl)-2-(8-(3,3,4,4,4-pentafluorobutyl)-[1,2,4]triazolo[1,5-a]pyrazin-6-yl)-5H-pyrrolo[2,3-d]pyrimidin-6(7H)-one]
EC50: 27 nM

Nc1nc(-c2cn3ncnc3c(CCC(F)(F)C(F)(F)F)n2)nc2c1C(c1ccc(Cl)cn1)(C1CC1)C(=O)N2 (stereo not drawn) [Example 7A, 4-amino-5-(5-chloropyridin-2-yl)-5-cyclopropyl-2-(8-(3,3,4,4,4-pentafluorobutyl)-[1,2,4]triazolo[1,5-a]pyrazin-6-yl)-5H-pyrrolo[2,3-d]pyrimidin-6(7H)-one]
EC50: 41.4 nM

Source: US9822130B2, “Triazolo-pyrazinyl derivatives useful as soluble guanylate cyclase activators” (Merck Sharp & Dohme Corp., priority 2014, dated 2017)
